Results reported in PubChem BioAssay AID2060607 (Molecular Pharmacology Branch, DTP, NCI, 2025).

Test system: 876862-298-R-J1-PDC complex spheroids, viability % test/control
Experiment: Anticancer human tumor 876862-298-R-J1-PDC patient-derived endometrial carcinoma cell line growth inhibition [CLK]
Conditions: for IC50: curve of first compound; for viability, T/C: stronger effect = lower value
Method in brief: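 Patient-derived tumor cells grown as complex spheroids with HUVEC endothelial cells and mesenchymal stem cells, treated with drug combinations. Concentrations descend in half-log steps from near clinical Cmax, or from 10 microM if Cmax unknown.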

[1] = second compound 0.0316 µM, first compound 0.0316 µM
[2] = second compound 0.0316 µM, first compound 0.1 µM
[3] = second compound 0.0316 µM, first compound 0.316 µM
[4] = second compound 0.0316 µM, first compound 1 µM
[5] = second compound 0.0316 µM, first compound 3.16 µM
[6] = second compound 0.0316 µM, first compound 10 µM
[7] = second compound 0.1 µM, first compound 0.0316 µM
[8] = second compound 0.1 µM, first compound 0.1 µM
[9] = second compound 0.1 µM, first compound 0.316 µM
[10] = second compound 0.1 µM, first compound 1 µM
[11] = second compound 0.1 µM, first compound 3.16 µM
[12] = second compound 0.1 µM, first compound 10 µM
[13] = second compound 0.316 µM, first compound 0.0316 µM
[14] = second compound 0.316 µM, first compound 0.1 µM
[15] = second compound 0.316 µM, first compound 0.316 µM
[16] = second compound 0.316 µM, first compound 1 µM
[17] = second compound 0.316 µM, first compound 3.16 µM
[18] = second compound 0.316 µM, first compound 10 µM
[19] = second compound 1 µM, first compound 0.0316 µM
[20] = second compound 1 µM, first compound 0.1 µM
[21] = second compound 1 µM, first compound 0.316 µM
[22] = second compound 1 µM, first compound 1 µM
[23] = second compound 1 µM, first compound 3.16 µM
[24] = second compound 1 µM, first compound 10 µM
[25] = second compound 3.16 µM, first compound 0.0316 µM
[26] = second compound 3.16 µM, first compound 0.1 µM
[27] = second compound 3.16 µM, first compound 0.316 µM
[28] = second compound 3.16 µM, first compound 1 µM
[29] = second compound 3.16 µM, first compound 3.16 µM
[30] = second compound 3.16 µM, first compound 10 µM
[31] = second compound 10 µM, first compound 0.0316 µM
[32] = second compound 10 µM, first compound 0.1 µM
[33] = second compound 10 µM, first compound 0.316 µM
[34] = second compound 10 µM, first compound 1 µM
[35] = second compound 10 µM, first compound 3.16 µM
[36] = second compound 10 µM, first compound 10 µM
[37] = second compound 0.0316 µM, first compound 0.00316 µM
[38] = second compound 0.0316 µM, first compound 0.01 µM
[39] = second compound 0.1 µM, first compound 0.00316 µM
[40] = second compound 0.1 µM, first compound 0.01 µM
[41] = second compound 0.316 µM, first compound 0.00316 µM
[42] = second compound 0.316 µM, first compound 0.01 µM
[43] = second compound 1 µM, first compound 0.00316 µM
[44] = second compound 1 µM, first compound 0.01 µM
[45] = second compound 3.16 µM, first compound 0.00316 µM
[46] = second compound 3.16 µM, first compound 0.01 µM
[47] = second compound 10 µM, first compound 0.00316 µM
[48] = second compound 10 µM, first compound 0.01 µM
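Note: spheroids exposed to drugs for 7 days before readout.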
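Throughout, for viability, T/C: 100% = DMSO vehicle control wells.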

In the case of `CC(CO)NC(=O)c1cc(-c2ccc(Cl)cc2)nn(-c2cnn(C)c2)c1=O` (stereo not drawn) + CNC(=O)c1ccc(Nc2nc(OC3CCCC3)c3c(-c4ccc5nc(C)oc5c4)c[nH]c3n2)c(OC)c1, the IC50 (second compound 0.0316 µM) is reported as > 10000 nM, the IC50 (second compound 0.1 µM) is reported as < 31.6 nM and the IC50 (second compound 0.316 µM) is reported as < 31.6 nM. For the same compound, the IC50 (second compound 1 µM) was < 31.6 nM, the IC50 (second compound 3.16 µM) was < 31.6 nM and the IC50 (second compound 10 µM) was < 31.6 nM. It also gave a viability, T/C [1] of 68.7%, a viability, T/C [2] of 81% and a viability, T/C [3] of 66.9%. For the same compound, the viability, T/C [4] was 67.7%, the viability, T/C [5] was 62.9% and the viability, T/C [6] was 55.7%. The viability, T/C [7] was 41%, the viability, T/C [8] was 53% and the viability, T/C [9] was 44.9%. For the same compound, the viability, T/C [10] was 48.5%, the viability, T/C [11] was 46.1% and the viability, T/C [12] was 42.7%. It also gave a viability, T/C [13] of 38.7%, a viability, T/C [14] of 43.8% and a viability, T/C [15] of 39.7%. The viability, T/C [16] was 37.9%, the viability, T/C [17] was 42.7% and the viability, T/C [18] was 42.1%. The viability, T/C [19] was 33.8%, the viability, T/C [20] was 32.6% and the viability, T/C [21] was 38.9%. The viability, T/C [22] was 33.3%, the viability, T/C [23] was 30% and the viability, T/C [24] was 31.3%. It also gave a viability, T/C [25] of 24%, a viability, T/C [26] of 25.1% and a viability, T/C [27] of 21.7%. It also gave a viability, T/C [28] of 25.5%, a viability, T/C [29] of 27.2% and a viability, T/C [30] of 22.4%. It also gave a viability, T/C [31] of 23.9%, a viability, T/C [32] of 21.2% and a viability, T/C [33] of 20.5%. The viability, T/C [34] was 23.8%, the viability, T/C [35] was 23.1% and the viability, T/C [36] was 20.9%.
For `CC(Nc1ccc2c(c1)OCCn1cc(N3C(=O)OCC3C(F)F)nc1-2)C(N)=O` (stereo not drawn) + CNC(=O)c1ccc(Nc2nc(OC3CCCC3)c3c(-c4ccc5nc(C)oc5c4)c[nH]c3n2)c(OC)c1, the IC50 (second compound 0.0316 µM) was 316 nM, the IC50 (second compound 0.1 µM) was < 31.6 nM and the IC50 (second compound 0.316 µM) was < 31.6 nM. For the same compound, the IC50 (second compound 1 µM) was < 31.6 nM, the IC50 (second compound 3.16 µM) was < 31.6 nM and the IC50 (second compound 10 µM) was < 31.6 nM. It also gave a viability, T/C [1] of 56%, a viability, T/C [2] of 61.4% and a viability, T/C [3] of 46.6%. The viability, T/C [4] was 41%, the viability, T/C [5] was 31.8% and the viability, T/C [6] was 20.8%. For the same compound, the viability, T/C [7] was 40.6%, the viability, T/C [8] was 38.3% and the viability, T/C [9] was 32.5%. It also gave a viability, T/C [10] of 27%, a viability, T/C [11] of 20.9% and a viability, T/C [12] of 16%. It also gave a viability, T/C [13] of 41%, a viability, T/C [14] of 33.2% and a viability, T/C [15] of 29.7%. It also gave a viability, T/C [16] of 23.1%, a viability, T/C [17] of 20% and a viability, T/C [18] of 17.4%. For the same compound, the viability, T/C [19] was 31.6%, the viability, T/C [20] was 25.4% and the viability, T/C [21] was 22.1%. For the same compound, the viability, T/C [22] was 20%, the viability, T/C [23] was 17.1% and the viability, T/C [24] was 14%. The viability, T/C [25] was 20.1%, the viability, T/C [26] was 16.7% and the viability, T/C [27] was 15.1%. For the same compound, the viability, T/C [28] was 14.8%, the viability, T/C [29] was 14% and the viability, T/C [30] was 10.2%. The viability, T/C [31] was 16.7%, the viability, T/C [32] was 14.8% and the viability, T/C [33] was 12.6%. For the same compound, the viability, T/C [34] was 13%, the viability, T/C [35] was 12% and the viability, T/C [36] was 9.25%.
In the case of `CCN1CCN(Cc2ccc(Nc3ncc(F)c(-c4cc(F)c5nc(C)n(C(C)C)c5c4)n3)nc2)CC1` + CNC(=O)c1ccc(Nc2nc(OC3CCCC3)c3c(-c4ccc5nc(C)oc5c4)c[nH]c3n2)c(OC)c1, the IC50 (second compound 0.0316 µM) is reported as > 1000 nM, the IC50 (second compound 0.1 µM) is reported as 60.7 nM and the IC50 (second compound 0.316 µM) is reported as < 3.16 nM. The IC50 (second compound 1 µM) was < 3.16 nM, the IC50 (second compound 3.16 µM) was < 3.16 nM and the IC50 (second compound 10 µM) was < 3.16 nM. It also gave a viability, T/C [37] of 76.6%, a viability, T/C [38] of 84.1% and a viability, T/C [1] of 69.4%. For the same compound, the viability, T/C [2] was 62.5%, the viability, T/C [3] was 59% and the viability, T/C [4] was 49%. For the same compound, the viability, T/C [39] was 46%, the viability, T/C [40] was 51.9% and the viability, T/C [7] was 57.1%. The viability, T/C [8] was 47.8%, the viability, T/C [9] was 47.8% and the viability, T/C [10] was 49.5%. The viability, T/C [41] was 47.2%, the viability, T/C [42] was 45.2% and the viability, T/C [13] was 49.6%. For the same compound, the viability, T/C [14] was 46.4%, the viability, T/C [15] was 45.1% and the viability, T/C [16] was 42.8%. For the same compound, the viability, T/C [43] was 34.7%, the viability, T/C [44] was 40.4% and the viability, T/C [19] was 41.1%. It also gave a viability, T/C [20] of 38.8%, a viability, T/C [21] of 31.8% and a viability, T/C [22] of 40.5%. The viability, T/C [45] was 28%, the viability, T/C [46] was 29.1% and the viability, T/C [25] was 27.1%. The viability, T/C [26] was 30%, the viability, T/C [27] was 30.1% and the viability, T/C [28] was 35.2%. For the same compound, the viability, T/C [47] was 25.2%, the viability, T/C [48] was 25.6% and the viability, T/C [31] was 22.7%. The viability, T/C [32] was 26.4%, the viability, T/C [33] was 30.1% and the viability, T/C [34] was 32.2%.
For `COc1c(OCCCN2CCOCC2)ccc2c3n(c(=NC(=O)c4cnc(N)nc4)nc12)CCN3` + CNC(=O)c1ccc(Nc2nc(OC3CCCC3)c3c(-c4ccc5nc(C)oc5c4)c[nH]c3n2)c(OC)c1, the IC50 (second compound 0.0316 µM) was 22.8 nM, the IC50 (second compound 0.1 µM) was < 3.16 nM and the IC50 (second compound 0.316 µM) was < 3.16 nM. For the same compound, the IC50 (second compound 1 µM) was < 3.16 nM, the IC50 (second compound 3.16 µM) was < 3.16 nM and the IC50 (second compound 10 µM) was < 3.16 nM. For the same compound, the viability, T/C [37] was 63.1%, the viability, T/C [38] was 67.3% and the viability, T/C [1] was 43.5%. The viability, T/C [2] was 22.6%, the viability, T/C [3] was 15.8% and the viability, T/C [4] was 18%. The viability, T/C [39] was 45.5%, the viability, T/C [40] was 35.1% and the viability, T/C [7] was 25.3%. It also gave a viability, T/C [8] of 16.6%, a viability, T/C [9] of 16.6% and a viability, T/C [10] of 18.4%. For the same compound, the viability, T/C [41] was 37.4%, the viability, T/C [42] was 32.6% and the viability, T/C [13] was 22.6%. For the same compound, the viability, T/C [14] was 18.1%, the viability, T/C [15] was 13.4% and the viability, T/C [16] was 14.9%. For the same compound, the viability, T/C [43] was 29.2%, the viability, T/C [44] was 22.1% and the viability, T/C [19] was 18.4%. For the same compound, the viability, T/C [20] was 13.6%, the viability, T/C [21] was 12% and the viability, T/C [22] was 12.6%. For the same compound, the viability, T/C [45] was 22.1%, the viability, T/C [46] was 17% and the viability, T/C [25] was 12.5%. For the same compound, the viability, T/C [26] was 9.46%, the viability, T/C [27] was 9.04% and the viability, T/C [28] was 7.24%. For the same compound, the viability, T/C [47] was 17.3%, the viability, T/C [48] was 16.9% and the viability, T/C [31] was 13.3%. For the same compound, the viability, T/C [32] was 9.74%, the viability, T/C [33] was 6.96% and the viability, T/C [34] was 6.64%.
